From patent publication US20050197350A1, “Novel quinoline, tetrahydroquinazoline, and pyrimidine derivatives and methods of treatment related to the use thereof” (TAISHO PHARMACEUTICAL CO., LTD., priority 2003, published 2005)
Read-outs that look alike come from different tables or passages of the source.

System: MCH receptors
Test: MCH receptor activity class (method not given)
[1] = class by percent of control at 10^−7 M or IC50
[2] = MCH receptor, class by percent of control at 10^-7 M or IC50
[3] = class by percent of control at 10^-7 M or IC50
[4] = class 1-3 by percent of control at 10^-7 M or IC50
[5] = activity class 1-3: percent of control at 10^-7 M or IC50
[6] = activity class per percent of control at 10^-7 M or IC50

How did the class [1] turn out when `Cc1cc(N(C)C)nc(N[C@H]2CC[C@@H](NC(=O)c3ccc(Br)c(C)c3)CC2)n1` [compound 2969, 4-bromo-N-(cis-4-{[4-(dimethylamino)-6-methylpyrimidin-2-yl]amino}cyclohexyl)-3-methylbenzamide] was run?
The class was 1 (Class 1: The value of percent of control at 10^−7 M was less than 40% or the value of IC50 was less than 50 nM.).

With `CN(C)c1cc(N[C@H]2CC[C@@H](CNC(=O)Cc3ccc(Cl)cc3)CC2)nc2ccccc12` [compound 155] as the compound, how does the class [2] read?
Its class is 3 (Class 3 The value of percent of control at 10^−7 M was more than 60% or the value of IC50 was more than 200 nM.).

`COc1ccc(CSC2(CC(=O)N[C@H]3CC[C@@H](Nc4nccc(N(C)C)n4)CC3)CCCCC2)cc1` [compound 853] was tested. Which class [3] did it give?
Its class is 3 (Class 3 The value of percent of control at 10^−7 M was more than 60% or the value of IC50 was more than 200 nM.).

With `CN(C)c1nc(N[C@H]2CC[C@@H](NC(=O)c3cccnc3Oc3ccccc3)CC2)nc2c1CCCC2` [compound 571] as the compound, how does the class [4] read?
The class was 2 (Class 2: The value of percent of control at 10^−7 M was from 40% to 60% or the value of IC′50 was from 50 nM to 200 nM.).

Which class [1] does the source give for `Cc1nc(N[C@H]2CC[C@@H](NC(=O)c3ccccn3)CC2)nc(N(C)C)c1C` [compound 2835] here?
Its class is 3 (Class 3 The value of percent of control at 10^−7 M was more than 60% or the value of IC50 was more than 200 nM.).

For `CN(C)c1nc(N[C@H]2CC[C@@H](NCc3c[nH]nc3-c3ccc(F)cc3)CC2)nc2c1CCCC2` [compound 1359], which class [3] is on record?
The class was 1 (Class 1: The value of percent of control at 10^−7 M was less than 40% or the value of IC50 was less than 50 nM.).

For `CN(C)c1cc(N[C@H]2CC[C@@H](NC(=O)Cc3ccc(Cl)c(Cl)c3)CC2)nc2ccccc12` [compound 699], which class [3] is on record?
The class was 3 (Class 3 The value of percent of control at 10^−7 M was more than 60% or the value of IC50 was more than 200 nM.).

How did the class [3] turn out when `CCN(CC)c1ccc(CNC[C@H]2CC[C@@H](Nc3nc4c(c(N(C)C)n3)CCCC4)CC2)cc1` [compound 1392] was run?
Its class is 2 (Class 2: The value of percent of control at 10^−7 M was from 40% to 60% or the value of IC′50 was from 50 nM to 200 nM.).

For `CCOc1ccc(Br)cc1CNC[C@H]1CC[C@@H](Nc2nccc(N(C)C)n2)CC1` [compound 1287], which class [3] is on record?
Its class is 1 (Class 1: The value of percent of control at 10^−7 M was less than 40% or the value of IC50 was less than 50 nM.).

For `CN(C)c1cc(N[C@H]2CC[C@@H](CNC(=O)c3cc(C(C)(C)C)nn3C)CC2)nc2ccccc12` [compound 213], which class [2] is on record?
The class was 3 (Class 3 The value of percent of control at 10^−7 M was more than 60% or the value of IC50 was more than 200 nM.).

How did the class [1] turn out when `Cc1cc(N(C)C)nc(N[C@H]2CC[C@@H](C(=O)N[C@H](C)c3ccc(Cl)cc3)CC2)n1` [compound 2805, cis-N-[(1R)-1-(4-chlorophenyl)ethyl]-4-{[4-(dimethylamino)-6-methylpyrimidin-2-yl]amino}cyclohexanecarboxamide] was run?
Its class is 1 (Class 1: The value of percent of control at 10^−7 M was less than 40% or the value of IC50 was less than 50 nM.).

How did the class [5] turn out when `COCCOC(=O)N[C@H]1CC[C@@H](Nc2nccc(N(C)C)n2)CC1` [compound 1625] was run?
Its class is 3 (Class 3 The value of percent of control at 10^−7 M was more than 60% or the value of IC50 was more than 200 nM.).

With `COc1cc(CNC(=O)[C@H]2CC[C@@H](Nc3nc(C)cc(N(C)C)n3)CC2)cc(OC)c1` [compound 2811, cis-N-(3,5-dimethoxybenzyl)-4-{[4-(dimethylamino)-6-methylpyrimidin-2-yl]amino}cyclohexanecarboxamide] as the compound, how does the class [1] read?
The class was 1 (Class 1: The value of percent of control at 10^−7 M was less than 40% or the value of IC50 was less than 50 nM.).

Which class [3] does the source give for `COc1ccc(CNC[C@H]2CC[C@@H](Nc3nccc(N(C)C)n3)CC2)cc1OC` [compound 1314] here?
The class was 2 (Class 2: The value of percent of control at 10^−7 M was from 40% to 60% or the value of IC′50 was from 50 nM to 200 nM.).

With `CN(C)c1cc(N[C@H]2CC[C@@H](CNC(=O)c3c(F)cccc3Cl)CC2)nc2ccccc12` [compound 232] as the compound, how does the class [3] read?
Its class is 3 (Class 3 The value of percent of control at 10^−7 M was more than 60% or the value of IC50 was more than 200 nM.).

Which class [3] does the source give for `CCCSc1ncccc1C(=O)NC[C@H]1CC[C@@H](Nc2nc3c(c(N(C)C)n2)CCCC3)CC1` [compound 646] here?
The class was 1 (Class 1: The value of percent of control at 10^−7 M was less than 40% or the value of IC50 was less than 50 nM.).

For `COc1cc(CNC(=O)[C@H]2CC[C@@H](Nc3nc(C)cc(N(C)C)n3)CC2)cc(OC)c1` [Example 2576, cis-N-(3,5-dimethoxybenzyl)-4-{[4-(dimethylamino)-6-methylpyrimidin-2-yl]amino}cyclohexanecarboxamide], which class is on record?
Its class is 1.

Which class [1] does the source give for `Cc1cnc(N[C@H]2CC[C@@H](NC(=O)c3ccccc3F)CC2)nc1N(C)C` [compound 2916] here?
The class was 3 (Class 3 The value of percent of control at 10^−7 M was more than 60% or the value of IC50 was more than 200 nM.).

With `Cc1cnc(N[C@H]2CC[C@@H](NS(=O)(=O)c3ccccc3)CC2)nc1N(C)C` [compound 2995, N-(cis-4-{[4-(dimethylamino)-5-methylpyrimidin-2-yl]amino}cyclohexyl)benzenesulfonamide] as the compound, how does the class [1] read?
The class was 3 (Class 3 The value of percent of control at 10^−7 M was more than 60% or the value of IC50 was more than 200 nM.).

Which class [3] does the source give for `CN(C)c1cc(N[C@H]2CC[C@@H](NC(=O)Nc3ccc4c(c3)OCO4)CC2)nc2ccccc12` [compound 2148] here?
The class was 3 (Class 3 The value of percent of control at 10^−7 M was more than 60% or the value of IC50 was more than 200 nM.).

With `CN(C)c1nc(N[C@H]2CC[C@@H](NC(=O)c3ccc([N+](=O)[O-])o3)CC2)nc2c1CCCC2` [compound 547] as the compound, how does the class [4] read?
Its class is 1 (Class 1: The value of percent of control at 10^−7 M was less than 40% or the value of IC50 was less than 50 nM.).

`Cc1cc(C)cc(NC(=S)N[C@H]2CC[C@@H](Nc3nc4c(c(N(C)C)n3)CCCC4)CC2)c1` [compound 2007] was tested. Which class [2] did it give?
The class was 3 (Class 3 The value of percent of control at 10^−7 M was more than 60% or the value of IC50 was more than 200 nM.).

For `Cc1cnc(N[C@H]2CC[C@@H](NC(=O)c3ccccc3Cl)CC2)nc1N(C)C` [compound 2915], which class [1] is on record?
Its class is 3 (Class 3 The value of percent of control at 10^−7 M was more than 60% or the value of IC50 was more than 200 nM.).

With `CN(C)c1nc(N[C@H]2CC[C@@H](CNC(=O)c3cn(Cc4ccccc4)c4ccccc34)CC2)nc2c1CCCC2` [compound 1078] as the compound, how does the class [6] read?
Its class is 3 (Class 3 The value of percent of control at 10^−7 M was more than 60% or the value of IC50 was more than 200 nM.).

Which class [3] does the source give for `Cc1oc(-c2ccccc2)cc1CNC[C@H]1CC[C@@H](Nc2nccc(N(C)C)n2)CC1` [compound 1313] here?
The class was 3 (Class 3 The value of percent of control at 10^−7 M was more than 60% or the value of IC50 was more than 200 nM.).

For `CCc1ccc(C(=O)N[C@H]2CC[C@@H](Nc3nc(C)cc(N(C)C)n3)CC2)cc1` [compound 2974, N-(cis-4-{[4-(dimethylamino)-6-methylpyrimidin-2-yl]amino}cyclohexyl)-4-ethylbenzamide], which class [1] is on record?
Its class is 2 (Class 2: The value of percent of control at 10^−7 M was from 40% to 60% or the value of IC′50 was from 50 nM to 200 nM.).

`CN(C)c1nc(N[C@H]2CC[C@@H](CNCc3cccc(Cl)c3)CC2)nc2c1CCCC2` [compound 1390] was tested. Which class [3] did it give?
The class was 3 (Class 3 The value of percent of control at 10^−7 M was more than 60% or the value of IC50 was more than 200 nM.).

Which class [3] does the source give for `CN(C)c1cc(N[C@H]2CC[C@@H](NC(=S)Nc3ccc(Cl)cc3Cl)CC2)nc2ccccc12` [compound 2169] here?
Its class is 3 (Class 3 The value of percent of control at 10^−7 M was more than 60% or the value of IC50 was more than 200 nM.).

With `CN(C)c1cc(N[C@H]2CC[C@@H](CNCc3ccccc3OC(F)(F)F)CC2)nc2ccccc12` [compound 1168] as the compound, how does the class [3] read?
Its class is 3 (Class 3 The value of percent of control at 10^−7 M was more than 60% or the value of IC50 was more than 200 nM.).

`CCOC(=O)[C@H](CC(C)C)NC(=O)N[C@H]1CC[C@@H](Nc2cc(N(C)C)c3ccccc3n2)CC1` (relative stereo) [compound 2093] was tested. Which class [3] did it give?
Its class is 3 (Class 3 The value of percent of control at 10^−7 M was more than 60% or the value of IC50 was more than 200 nM.).

How did the class [3] turn out when `CN(C)c1nc(N[C@H]2CC[C@@H](CNCc3c[nH]c4ccccc34)CC2)nc2c1CCCC2` [compound 1366] was run?
Its class is 2 (Class 2: The value of percent of control at 10^−7 M was from 40% to 60% or the value of IC′50 was from 50 nM to 200 nM.).

For `CN(C)c1cc(N[C@H]2CC[C@@H](CNC(=O)c3ccccc3SC(F)F)CC2)nc2ccccc12` [compound 209], which class [2] is on record?
Its class is 3 (Class 3 The value of percent of control at 10^−7 M was more than 60% or the value of IC50 was more than 200 nM.).

With `CN(C)c1ccnc(N[C@H]2CC[C@@H](NC(=S)Nc3ccc(I)cc3)CC2)n1` [compound 2317] as the compound, how does the class (MCH receptor activity class 1-3 (percent of control at 10^-7 M or IC50)) read?
The class was 3 (Class 3 The value of percent of control at 10^−7 M was more than 60% or the value of IC50 was more than 200 nM.).

Which class [3] does the source give for `CCCCOC(=O)c1ccc(NC(=O)N[C@H]2CC[C@@H](Nc3nc4c(c(N(C)C)n3)CCCC4)CC2)cc1` [compound 1877] here?
Its class is 3 (Class 3 The value of percent of control at 10^−7 M was more than 60% or the value of IC50 was more than 200 nM.).

`CN(C)c1cc(N[C@H]2CC[C@@H](NC(=O)c3ccc(F)cc3Cl)CC2)nc2ccccc12` [compound 61] was tested. Which class [2] did it give?
Its class is 3 (Class 3 The value of percent of control at 10^−7 M was more than 60% or the value of IC50 was more than 200 nM.).

For `COc1ccccc1OC(=O)N[C@H]1CC[C@@H](Nc2nccc(N(C)C)n2)CC1` [compound 1624], which class [5] is on record?
Its class is 3 (Class 3 The value of percent of control at 10^−7 M was more than 60% or the value of IC50 was more than 200 nM.).

How did the class [6] turn out when `Cc1c(C(=O)N[C@H]2CC[C@@H](Nc3nc4c(c(N(C)C)n3)CCCC4)CC2)cc(-c2ccccc2)n1CCSCc1c(F)cccc1Cl` [compound 1028, 1-{2-[(2-chloro-6-fluorobenzyl)thio]ethyl}-N-(cis-4-{[4-(dimethy-lamino)-5,6,7,8-tetrahydroquinazolin-2-yl]amino}-cyclohexyl)-2-methyl-5-phenyl-1H-pyrrole-3-carboxamide] was run?
The class was 2 (Class 2: The value of percent of control at 10^−7 M was from 40% to 60% or the value of IC′50 was from 50 nM to 200 nM.).
